From patent US10780080B2, “Benzamide and active compound compositions and methods of use” (TRANSLATIONAL DRUG DEVELOPMENT, LLC, priority 2016, dated 2020)
“And” between values parts separate entries of the source, which are not always exact repeats. Equal entries are not always repeated. “Also recorded” adds a separate entry of the source. One block for each compound: values may come before it.

Key:
[1] = solvents named in the value; cited from earlier work
[2] = system: cancer cell models; details: literature reports; cited from earlier work
[3] = system: CT-26 murine colon tumor; assay: CT-26 tumor volume growth, ID #24 and anti-4-1BB; type: in vivo; details: Anti-m4-1BB 0.05 mg/kg IP QDx1, in mm³
[4] = system: intratumoral CD8 T-cells and natural killer cells; assay: Intratumoral immune cells in tumor bearing mice; type: in vivo
[5] = system: human acute leukemia cell line (HL-60); assay: CellTiter-Glo cell viability assay, single agent growth inhibition; type: cell-based; details: HL-60, 72 hours treatment
Procedure: Cell viability in the presence of varying concentrations of the benzamide compounds at different time points was used to assess cytotoxicity and the effect of the compounds on cell proliferation.
Cell Viability Assay-Cell viability was measured by the CellTiter-Glo® cell viability assay Promega (Madison, Wis.). The CellTiter-Glo® Luminescent Cell Viability Assay is a homogeneous method to determine the number of viable cells in culture based on quantitation of the ATP present, which signals the presence of metabolically active cells. Following treatment, CellTiter-Glo® is added to treatment wells and incubated at 37° C. luminescence values were measured at using a Molecular Devices Spectramax microplate reader.
Single Agent Studies—Cells were grown to 70% confluency, trypsinized, counted, and seeded in 96 well flat-bottom plates at a final concentration of 2.5×10^3-5×10^3 cells/well (Day 0). Cells were allowed to incubate in growth media for 24 hours to allow for maximum adhesion. Treatment with the test agents or standard agents began on Day 1 and continued for 72 hours. At the 72-hour time point, treatment containing media was removed. Viable cell numbers are quantified by the CellTiter-Glo® cell viability assay as described above. Experiments were run with triplicate concentrations to determine growth inhibitory activity. Results from these studies were used to calculate an IC50 value (concentration of drug that inhibits cell growth by 50 percent of control) for each compound.
Data Collection—For single agent and combination studies, data from each experiment was collected and expressed as % Cell Growth using the following calculation: % Cell Growth=(ftest/fvehicle)×100
Where ftest is the luminescence of the tested sample, and fvehicle is the luminescence of the vehicle in which the drug is dissolved. Dose response graphs and IC50 values were generated using Prism 6 software (GraphPad).

SMILES: Nc1ncn([C@@H]2O[C@H](CO)[C@@H](O)[C@H]2O)c(=O)n1 [Azacitidine, 4-amino-1-β-D-ribofuranozyl-s-triazin-2(1H)-one]
solubility [1]: insoluble in acetone, ethanol and methyl ketone; also recorded: slightly soluble in ethanol/water (50/50), propylene glycol and polyethylene glycol; also recorded: sparingly soluble in water, water-saturated octanol, 5% dextrose in water, N-methyl-2-pyrrolidone, normal saline and 5% Tween 80 in water; also recorded: soluble in dimethylsulfoxide (DMSO)

SMILES: Nc1ncn([C@H]2C[C@H](O)[C@@H](CO)O2)c(=O)n1 [Decitabine, 4-amino-1-(2-deoxy-β-D-erythro-pentofuranosyl)-1,3,5-triazin-2(1H)one]
solubility [1]: slightly soluble in ethanol/water (50/50), methanol/water (50/50) and methanol; also recorded: sparingly soluble in water; also recorded: soluble in dimethylsulfoxide (DMSO) | effects on cancer cells [2]: suppression of growth and apoptosis; also recorded: causes G2 arrest, reduces clonogenic survival, and inhibits growth in cells

SMILES: O=C(NO)c1ccc(Nc2nc3ccccc3n2CC2CCCCC2)cc1 [ID #24, 4-(1-(cyclohexylmethyl)-1H-benzo[d]imidazol-2-ylamino)-N-hydroxybenzamide]
tumor volume, individual animal (ID 001-005) ([3]; Day 1, Example #24 150.00 mg/kg PO QD to end): 85 | tumor volume, individual animal (ID 001-005) ([3]; Day 5, Example #24 150.00 mg/kg PO QD to end): 73 | tumor volume, individual animal (ID 001-005) ([3]; Day 8, Example #24 150.00 mg/kg PO QD to end): 65 | tumor volume, individual animal (ID 001-005) ([3]; Day 9, Example #24 150.00 mg/kg PO QD to end): 65 | tumor volume, individual animal (ID 001-005) ([3]; Day 12, Example #24 150.00 mg/kg PO QD to end): 68 and 590 | tumor volume, individual animal (ID 001-005) ([3]; Day 14, Example #24 150.00 mg/kg PO QD to end): 67 | numbers of intratumoral CD8 T-cells and natural killer cells [4]: increased numbers of intratumoral CD8 T-cells and natural killer cells | IC50 [5]: 1.15 µM

Continued, values first:

IC50 [5]: 3.9 µM
SMILES: O=C(NO)c1ccc(Nc2nc3ccccc3n2C2CCCCC2)cc1 [ID #25, 4-(1-cyclohexyl-1H-benzo[d]imidazol-2-ylamino)-N-hydroxybenzamide]

IC50 [5]: 0.66 µM
SMILES: O=C(NO)c1ccc(Nc2nc3ccccc3n2C2CCCCCC2)cc1 [ID #26, 4-(1-cycloheptyl-1H-benzo[d]imidazol-2-ylamino)-N-hydroxybenzamide]
